One data set deals with T1, GAL2R (Homo sapiens, UniProt O43603).
T1 sequence (O43603 1-387): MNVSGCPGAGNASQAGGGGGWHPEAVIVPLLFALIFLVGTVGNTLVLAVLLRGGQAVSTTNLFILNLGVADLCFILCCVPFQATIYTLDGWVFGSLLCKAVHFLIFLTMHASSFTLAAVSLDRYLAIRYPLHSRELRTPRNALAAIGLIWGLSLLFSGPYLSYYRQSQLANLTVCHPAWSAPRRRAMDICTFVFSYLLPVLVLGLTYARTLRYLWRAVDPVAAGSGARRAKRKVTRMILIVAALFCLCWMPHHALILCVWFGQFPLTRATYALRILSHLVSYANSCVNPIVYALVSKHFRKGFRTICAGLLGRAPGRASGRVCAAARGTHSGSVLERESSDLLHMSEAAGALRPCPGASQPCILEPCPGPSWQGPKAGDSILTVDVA
Details: expressed in transfected cells; host or cells: HEK293 Gqi cells, transient; plasmids from Young Seong (Korea University). The following applies: cited from earlier work. The text has this: Since the discovery of the three GALRs, major effort has been directed at developing receptor-selective agonists and antagonists. These were based on substitution of certain amino acids in the galanin peptide sequence. While receptor selectivity was achieved to some degree, GAL(2–11) turned out to be a very selective non-GAL1R agonist.

Data set [1] has as its system non-fasted male Wistar rats. The data set can be described thus: Food intake and body weight after intranasal application of peptides. Type of data set: in vivo, rat. The procedure: For intranasal delivery, 1 mg of M89b was first dissolved in 566 µl 2,2,2-trifluorethanol, 566 µl 10% (2-hydroxypropyl)-ß-cyclodextrin (HBC), and 1 µl acetic acid and incubated at 60 °C for 20 min. Another 566 µl of 10% HBC were added. The peptide was then dried in a speed-vac, and the dried pellet was dissolved in 1132 µl water by vortexing and incubation at 60 °C. M871 and GALP were purchased from GL Biochem. M871 was dissolved in saline containing 10% HBC. GALP was dissolved in saline containing 5% α-cyclodextrin.
In vivo experiments involving intranasal treatment of rats and measurement of feeding behavior were performed at the Institute for Translational Medicine, University of Pécs, Pécs, Hungary. Experiments were approved by the National Ethical Council for Animal Research (permit number, BA 02/2000–11/2018). They were also in accord with the directives of the European Communities Council on the protection of animals used for scientific purposes (86/609/EEC, Directive 2010/63/EU of the European Parliament and of the Council).
Spontaneous food intake was measured in non-fasted male Wistar rats (3 months old) for 24 h following intranasal application of peptide solutions by an automated FeedScale System (Columbus, OH). Each group of animals (6–9 rats/group) was habituated to the individual chambers of the FeedScale System until daily food intake and changes in the body weight of the animals had normalized. This habituation, which lasted for a minimum of 2 weeks, allowed adaptation to the environment, to the powdered chow and to the feeder. This powdered form of chow prevented food hoarding. A special digital scale under the cages provided precise automated measurement and continuous recording of the amount of consumed food. During the measurement of the cumulative 24 h food intake, data were collected every 30 min.
Intranasal applications were performed at 06:00 PM at the onset of the active nighttime period of rats. First, the body weight of animals was recorded, and then they were intraperitoneally anesthetized with ketamine (52 mg/kg) and xylazine (9 mg/kg). For the intranasal application of peptides, rats were placed on their backs, and 25–30 µl of peptide solution was injected gently per nostril (total volume of 50–60 μl per rat depending on the administered peptides) using a 10-μl pipette. The following solutions were applied: M89b (25 nmol in 60 µl saline containing 10% HBC); GALP (17.5 nmol in 50 µl saline containing 5% α-cyclodextrin); M871 (219 nmol in 60 µl 10% HBC); and M89b + M871 (25 nmol M89b + 219 nmol M871 in 60 µl 10% HBC). […] At 24 h post-treatment, the body weight of the animals was measured.
Statistical analysis was performed with SPSS 11.0. […] Body weight data were analyzed by applying a one-way ANOVA with Tukey’s post hoc test. […]

For data set [2] the following is noted: intranasal administration with α-cyclodextrins; cited from earlier work. The text has this:
For delivery of therapeutic peptides and proteins to the brain, the blood–brain barrier (BBB) is a major impediment. Intranasal delivery might provide a non-invasive means to bypass the BBB. Advantages of applying peptides via the nasal route, provided they do indeed reach the brain, include minimizing exposure to peripheral organs and tissues, thus reducing systemic side effects. […] Intranasal delivery of peptides may provide the ability to target specific re ...

A short description of data set [3]: In vitro stability in cerebrospinal fluid. Format: in vitro ADME. The note with it: cerebrospinal or other body fluid; pooled male Wistar Hannover rat cerebrospinal fluid, 37 °C; 4 µl 0.50 mM peptide + 10 µl CSF; after 4 h; HPLC A280; n = 2–3; read-out: Peptide retrieved in CSF. The procedure: Pooled male Wistar Hannover rat cerebrospinal fluid was purchased from BioIVT (West Sussex, UK). Stability of peptides was analyzed by incubation of 4 µl 0.50 mM GAL-(1–15) with 10 µl cerebrospinal fluid or 6 µl 0.33 mM M89b with 10 µl cerebrospinal fluid at 37 °C [43]. At various time points (0, 30, 60, 240, and 480 min), the reactions were quenched with 2 µl 50% TFA and 20 µl 100% ACN. Water was added to reach a final volume of 220 µl. Samples were centrifuged and kept on ice. Full-length peptides were quantified by using a C12 column (C12 RP 250 × 4.60 mm column, Phenomenex) on a JASCO HPLC system and applying a gradient of 20–90% ACN in 0.1% TFA for 30 min. Peptides were detected at 280 nm. A280 areas in chromatograms of the corresponding GAL-(1–15) and M89b full-length peptide peaks were used to determine the amount of peptide left after incubation with cerebrospinal fluid at the different time points. Peptide peaks were determined using JASCO-Borwin Chromatography software (v1.50).

A short description of data set [4]: In vitro stability in rat serum. Type of data set: in vitro ADME. The following applies: 5% rat serum, 20 mM phosphate pH 7.4, 37 °C, 10 µM, HPLC A280, n = 2–3. The procedure:
At various time points (0, 30, 90, 270, and 1410 min), 180 µl of samples were quenched with 10 µl 10% TFA and 20 µl 100% ACN. Samples were centrifuged and kept on ice. The amount of full-length peptides in the serum was analyzed using a C12 column (C12 RP 250 × 4.60 mm column, Phenomenex) on a JASCO HPLC system and applying a gradient of 10–90% ACN in 0.1% TFA for 45 min. Peptides were detected at 280 nm. A280 areas in chromatograms of the corresponding GAL-(1–15) and M89b full-length peptide peaks were used to determine the amount of peptide left after incubation with 5% rat serum at the different time points. Peptide peaks were determined using JASCO-Borwin Chromatography software (v1.50).

Data set [5] is described as follows: In vitro stability in brain plasma. Format: in vitro ADME, rat. The following applies: 1% Sprague dawley rat brain plasma, 200 mM phosphate pH 7.4, 37 °C, 10 µM; after 1 h; HPLC A280; n=3. How it is done: The method to study the stability of peptides in brain plasma is described in the Supplementary material. […]
receptor-2-selective agonist reduces acute food intake
Anneke Kuipers1, Márta Balasko2, Erika Pétervári2, Andreas Koller3,4, Susanne M.
Brunner3,4, Gert N. Moll1,5, Barbara Kofler 3*
In vitro stability in brain plasma
Sprague dawley rat brain lyophilized powder was purchased from MyBioSource (San Diego, USA). One gram brain powder was reconstituted in 10 ml PBS, 0.5 ml 2 M Tris (pH=8), 100 µl Triton X -100 and 10 mg SDS. The solution was centrifuged and the supernatant was collected, aliquoted and stored at -20 °C until usage. To assess the stability, 10 µM GAL-(1-15) and 10 µM M89b were incubated in 1% brain plasma buffered with 200 mM phosphate buffer (pH 7.4) at 37°C for up to 6 hours. At various time points […]
20 µl 100% ACN. Samples were centrifuged and kept on ice. Full-length peptides were quantified by using a C12 column (C12 RP 250 x 4.60 mm column, Phenomenex) on a JASCO HPLC system and applying a gradient of 20 -90% ACN in 0.1% TFA for 30 minutes.
Peptides were detected at 280 nm. A280 areas in chromatograms of the corresponding GAL-(1-15) and M89b full-length peptide peaks were used to determine the amount of peptide left after incubation with cerebrospinal fluid at the different time points. Peptide peaks were determined using JASCO-Borwin Chromatography software (v1.50).

The conditions of data set [6]: cited from earlier work. The text has this:
The use of natural galanin in clinical applications faces two serious limitations: lack of receptor specificity and in vivo susceptibility to rapid peptidase-mediated breakdown. […] Recently, a selective GAL2R agonist based on the sequence of spexin, a newly discovered natural peptide with affinity for GAL2R and ...

Regarding Ala5-galanin(2–11), on GAL2R, the “Preference for GAL2R compared to both GAL1R and GAL3R” value is given as “more than 375 fold”.

Consider “galanin-like peptide (APAHRGRGGWTLNSAGYLLGPVLHLPQMGDQDGKRETALEILDLWKAIDGLPYSHPPQPS; Galanin-like peptide; UniProt Q9UBC7 25-84, looked up) [GALP, reference compound]”, for which the “Reduction of 24-h food intake” value in data set [1] (intranasal 17.5 nmol in 50 µl saline with 5% α-cyclodextrin, vs vehicle, p = 0.038) is 19%. Besides, the “24-h body weight change” value in data set [1] (intranasal 17.5 nmol in saline with 5% α-cyclodextrin, p = 0.0247 as printed) is given as “trend of reduction, but this change did not reach statistical significance”. Further, the “Increase of uptake in all brain regions compared to GALP alone” value in data set [2] is reported as “two- to threefold”.

For the compound `CC(C)C[C@H](NC(=O)[C@H](CC(C)C)NC(=O)[C@H](Cc1ccc(O)cc1)NC(=O)CNC(=O)[C@H](C)NC(=O)[C@H](CO)NC(=O)[C@H](CC(N)=O)NC(=O)[C@H](CC(C)C)NC(=O)[C@@H](NC(=O)[C@H](Cc1c[nH]c2ccccc12)NC(=O)CN)[C@@H](C)O)C(=O)NCC(=O)N1CCC[C@H]1C(=O)N[C@@H](Cc1c[nH]cn1)C(=O)N[C@@H](C)C(N)=O` [GAL-(1–15), reference compound], in data set [3], the remaining at 4 h, 143 µM was below 4%. In addition, the metabolised at 0.5 h, 10 µM in data set [4] (after 30 min, read-out: Peptide degraded in rat serum) is 80%. In addition, the remaining at 1.5 h, 10 µM in data set [4] (after 90 min, read-out: Peptide detectable in rat serum) is below 2%. For the same compound, the “Degradation in brain plasma” value in data set [5] is “the whole amount of GAL-(1–15) was degraded”.

In the case of `CC(C)C[C@H](NC(=O)CNC(=O)[C@H](CC(N)=O)NC(=O)[C@H](CCCCN)NC(=O)[C@H](CC(=O)O)NC(=O)[C@H](CO)NC(=O)[C@H](Cc1ccccc1)NC(=O)[C@H](CO)NC(=O)[C@H](CCCNC(=N)N)NC(=O)[C@H](Cc1cnc[nH]1)NC(=O)[C@H](CC(N)=O)NC(=O)CNC(=O)[C@@H](NC(=O)[C@H](C)NC(=O)[C@H](Cc1cnc[nH]1)NC(=O)[C@@H]1CCCN1C(=O)CNC(=O)[C@H](CC(C)C)NC(=O)[C@H](CC(C)C)NC(=O)[C@H](Cc1ccc(O)cc1)NC(=O)CNC(=O)[C@H](C)NC(=O)[C@H](CO)NC(=O)[C@H](CC(N)=O)NC(=O)[C@H](CC(C)C)NC(=O)[C@@H](NC(=O)[C@H](Cc1c[nH]c2ccccc12)NC(=O)CN)[C@@H](C)O)C(C)C)C(=O)N[C@H](C(=O)N[C@@H](CO)C(=O)O)[C@@H](C)O` [galanin], in data set [6], the “In vivo half-life in plasma” value is on record as “around 4 min”.

(Values after paper PMC8804135 (Neurotherapeutics, 2021).)
